According to patent US20250152585A1, “PHARMACEUTICAL COMPOUND” (Duke Street Bio Limited, priority 2022, published 2025):
Like-named read-outs stand apart in the source and are kept apart here.

Legend:
[1] = molecular target: T1, N-terminally FLAG-tagged PARP2 (amino acids 1-583) (Homo sapiens, UniProt Q9UGN5); assay: PARP2 probe displacement HTRF assay; format: binding; conditions: binned Kd
T1 construct: N-terminally FLAG-tagged PARP2 (amino acids 1-583)
Protocol: Data analysis was performed identical as for PARP1.

[2] = molecular target: T2, full length N-terminally FLAG-tagged PARP1 (Homo sapiens, UniProt P09874); assay: PARP1 probe displacement HTRF assay; conditions: for Selectivity: PARP1 over PARP2, ratio Kd (PARP2)/Kd (PARP1); for Kd: binned Kd
T2 sequence (P09874 whole entry): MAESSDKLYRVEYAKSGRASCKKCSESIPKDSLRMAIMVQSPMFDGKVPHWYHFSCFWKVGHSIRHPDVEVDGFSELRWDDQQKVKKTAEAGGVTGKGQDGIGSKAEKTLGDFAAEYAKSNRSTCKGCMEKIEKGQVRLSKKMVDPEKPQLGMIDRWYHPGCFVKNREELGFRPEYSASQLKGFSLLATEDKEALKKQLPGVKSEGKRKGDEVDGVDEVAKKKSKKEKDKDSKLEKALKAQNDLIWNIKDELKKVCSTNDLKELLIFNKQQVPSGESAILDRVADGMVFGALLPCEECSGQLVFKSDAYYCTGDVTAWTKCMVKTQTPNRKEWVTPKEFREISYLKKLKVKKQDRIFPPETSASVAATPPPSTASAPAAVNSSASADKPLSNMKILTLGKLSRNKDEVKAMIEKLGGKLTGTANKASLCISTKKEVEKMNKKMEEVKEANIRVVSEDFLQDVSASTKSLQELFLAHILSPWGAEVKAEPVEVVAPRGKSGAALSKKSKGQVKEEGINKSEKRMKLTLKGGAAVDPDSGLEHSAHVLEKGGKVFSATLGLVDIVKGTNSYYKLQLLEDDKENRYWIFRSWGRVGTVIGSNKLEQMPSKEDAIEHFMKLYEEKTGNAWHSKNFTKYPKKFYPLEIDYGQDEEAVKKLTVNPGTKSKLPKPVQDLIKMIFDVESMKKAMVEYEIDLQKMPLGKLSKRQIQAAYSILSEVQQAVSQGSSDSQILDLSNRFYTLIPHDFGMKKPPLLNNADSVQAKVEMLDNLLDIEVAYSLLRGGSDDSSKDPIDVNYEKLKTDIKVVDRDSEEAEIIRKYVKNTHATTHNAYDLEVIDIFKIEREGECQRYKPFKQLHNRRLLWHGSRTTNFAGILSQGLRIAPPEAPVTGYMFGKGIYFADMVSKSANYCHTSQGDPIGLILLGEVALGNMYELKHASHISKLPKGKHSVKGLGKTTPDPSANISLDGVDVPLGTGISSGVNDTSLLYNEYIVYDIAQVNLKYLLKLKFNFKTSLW

[3] = molecular target: T2, full length N-terminally FLAG-tagged PARP1; assay: PARP1 biochemical DELFIA assay (auto-PARylation); design: recombinant full length human N-terminally FLAG-tagged PARP1
[4] = read-out: PARP1 HTRF, probe displacement HTRF
[5] = binned IC50, biochemical auto-PARylation assay
[6] = read-out: PARP1 HTRF, PARP1 probe displacement HTRF
[7] = binned IC50, PARP1 biochemical DELFIA assay

T1 sequence (Q9UGN5 whole entry, the tested form may be a part): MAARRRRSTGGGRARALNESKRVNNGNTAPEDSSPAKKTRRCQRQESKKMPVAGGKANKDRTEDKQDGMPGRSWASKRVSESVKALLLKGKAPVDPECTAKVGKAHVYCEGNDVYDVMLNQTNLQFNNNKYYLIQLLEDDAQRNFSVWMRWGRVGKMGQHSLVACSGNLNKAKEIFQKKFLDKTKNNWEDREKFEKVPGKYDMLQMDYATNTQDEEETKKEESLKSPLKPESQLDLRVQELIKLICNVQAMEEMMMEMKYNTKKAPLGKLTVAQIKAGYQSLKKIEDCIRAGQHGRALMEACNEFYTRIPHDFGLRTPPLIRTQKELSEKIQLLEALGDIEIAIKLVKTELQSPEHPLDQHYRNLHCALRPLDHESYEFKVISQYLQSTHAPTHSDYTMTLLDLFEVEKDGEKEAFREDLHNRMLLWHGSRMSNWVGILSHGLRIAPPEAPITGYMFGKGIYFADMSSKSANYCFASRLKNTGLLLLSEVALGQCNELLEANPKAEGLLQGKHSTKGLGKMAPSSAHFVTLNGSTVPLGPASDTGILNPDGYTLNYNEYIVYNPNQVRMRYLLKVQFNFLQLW

SMILES	Kd ([1]; probe displacement HTRF)	Selectivity ([2]; probe displacement HTRF)	Kd [2, 4]	IC50 [3, 5]	Kd ([1]; PARP2 probe displacement HTRF)	Kd [2, 6]	IC50 [3, 7]	Kd ([2]; PARP1 HTRF, PARP1 probe displacement HTRF)
CNC(=O)c1ccc(N2CCC(N3CCC(c4ccc(CCOC)c(=O)[nH]4)C3)CC2)cn1 (single isomer, unassigned) [Compound 240b]	> 10 µM	− (− indicates a value of less than 10)	1 to 10 µM	1 to 10 µM	–	–	–	–
CNC(=O)c1cc(F)c(N2CCC(N3CCC(c4cc5ccc(F)cc5c(=O)[nH]4)C3)CC2)cn1 (racemic) [Compound 235rac]	0.01 to 0.1 µM	+ (+ indicates a value of 10 to less than 50)	< 0.01 µM	< 0.01 µM	–	–	–	–
N#Cc1ccc(N2CCC(N3CCC(c4cc5ccc(F)cc5c(=O)[nH]4)C3)CC2)c(F)c1 (single isomer, unassigned) [Compound 385a]	1 to 10 µM	+++ (+++ indicate a value of at least 100)	< 0.01 µM	< 0.01 µM	–	–	–	–
CNC(=O)c1ccc(N2CCC(N3CCC(c4ccc(OC)c(=O)[nH]4)C3)CC2)cn1 (single isomer, unassigned) [Compound 148a]	–	− (− indicates a value of less than 10)	–	–	> 10 µM	> 10 µM	1 to 10 µM	–
CCc1ccc(C2CCN(C3CCN(c4ccc(C#N)nc4)CC3)C2)[nH]c1=O (single isomer, unassigned) [Compound 326b]	1 to 10 µM	+++ (+++ indicate a value of at least 100)	< 0.01 µM	0.01 to 0.1 µM	–	–	–	–
CNC(=O)c1ccc(N2CC(N3CCCC(c4nc5ccccc5c(=O)[nH]4)CC3)C2)cn1 (single isomer, unassigned) [Compound 145b]	–	+++ (+++ indicate a value of at least 100)	–	–	1 to 10 µM	< 0.01 µM	< 0.01 µM	–
O=c1[nH]c(C2CCN(C3CCN(c4ccc(OC(F)F)nc4)CC3)C2)cc2ccc(F)cc12 (single isomer, unassigned) [Compound 374b]	0.01 to 0.1 µM	++ (++ indicates a value of 50 to less than 100)	< 0.01 µM	< 0.01 µM	–	–	–	–
CNC(=O)c1ccc(N2CCC(N3CCC(c4nc5ccccc5c(=O)[nH]4)C3)CC2)c(C(F)(F)F)n1 (single isomer, unassigned) [Compound 139a]	–	+++ (+++ indicate a value of at least 100)	–	–	1 to 10 µM	< 0.01 µM	< 0.01 µM	–
CNC(=O)c1ccc(OCCCN2CCCC(c3nc4ccccc4c(=O)[nH]3)C2)cn1 (single isomer, unassigned) [Compound 7a]	–	+++ (+++ indicate a value of at least 100)	–	–	0.1 to 1 µM	< 0.01 µM	0.01 to 0.1 µM	–
CNC(=O)c1ccc(N2CCC(N3CCCC(c4ncc(CC(F)(F)F)c(=O)[nH]4)C3)CC2)cn1 (single isomer, unassigned) [Compound 212a]	–	+ (+ indicates a value of 10 to less than 50)	–	–	> 10 µM	0.1 to 1 µM	0.1 to 1 µM	–
CNC(=O)c1ccc(N2CCC(N3CCC(c4[nH]c(=O)c5c(F)cccc5c4F)C3)CC2)c(F)n1 (single isomer, unassigned) [Compound 402a]	0.1 to 1 µM	+++ (+++ indicate a value of at least 100)	< 0.01 µM	< 0.01 µM	–	–	–	–
O=C(NC1CC1)c1ccc(N2CCC(N3CCC(c4cc5cccc(F)c5c(=O)[nH]4)C3)CC2)cn1 (single isomer, unassigned) [Compound 339b]	0.1 to 1 µM	+++ (+++ indicate a value of at least 100)	< 0.01 µM	< 0.01 µM	–	–	–	–
N#Cc1nc(C(=O)NC2CC2)ccc1N1CCC(N2CCC(c3cc4ccc(F)cc4c(=O)[nH]3)C2)CC1 (single isomer, unassigned) [Compound 397b]	0.01 to 0.1 µM	+++ (+++ indicate a value of at least 100)	< 0.01 µM	< 0.01 µM	–	–	–	–
CNC(=O)c1ncc(N2CCC(N3CCC(c4cc5ccc(F)cc5c(=O)[nH]4)C3)CC2)c(C)n1 (single isomer, unassigned) [Compound 265a]	1 to 10 µM	+++ (+++ indicate a value of at least 100)	< 0.01 µM	< 0.01 µM	–	–	–	–
CNC(=O)c1ccc(N2CCC(N3CCCC(c4nc5cc(F)ccc5c(=O)[nH]4)C3)CC2)cn1 (single isomer, unassigned) [Compound 108b]	–	+ (+ indicates a value of 10 to less than 50)	–	–	> 10 µM	0.1 to 1 µM	0.1 to 1 µM	–
CNC(=O)c1ccc(N2CCC(N3CCC(c4cc5ccccc5c(=O)[nH]4)C3)CC2)cn1 (single isomer, unassigned) [Compound 91a]	–	+++ (+++ indicate a value of at least 100)	–	–	0.1 to 1 µM	< 0.01 µM	< 0.01 µM	–
CNC(=O)c1ccc(F)c(N2CCC(N3CCC(c4nc5ccccc5c(=O)[nH]4)C3)CC2)n1 (racemic) [Compound 105rac]	–	− (− indicates a value of less than 10)	–	–	1 to 10 µM	0.1 to 1 µM	0.1 to 1 µM	–
CNC(=O)c1ccc(N2CCC(N3CCC(c4cc5cccc(F)c5c(=O)[nH]4)C3)CC2)c(F)n1 (single isomer, unassigned) [Compound 184a, 6-fluoro-5-[4-[3-(8-fluoro-1-oxo-2H-isoquinolin-3-yl)pyrrolidin-1-yl]piperidin-1-yl]-N-methylpyridine-2-carboxamide]	–	+++ (+++ indicate a value of at least 100)	–	–	1 to 10 µM	–	< 0.01 µM	< 0.01 µM
CNC(=O)c1ccc(N2CCC(N3CCC(c4nc5cc(F)ccc5c(=O)[nH]4)C3)CC2)cn1 (single isomer, unassigned) [Compound 92b]	–	+++ (+++ indicate a value of at least 100)	–	–	1 to 10 µM	< 0.01 µM	0.01 to 0.1 µM	–
CCc1ccc(C2CCN(C3CCN(c4ccc(C(=O)NCC(F)F)nc4F)CC3)C2)[nH]c1=O (single isomer, unassigned) [Compound 398a]	1 to 10 µM	+++ (+++ indicate a value of at least 100)	< 0.01 µM	< 0.01 µM	–	–	–	–
CS(=O)(=O)Nc1ccc(N2CCC(N3CCC(c4cc5ccccc5c(=O)[nH]4)C3)CC2)cc1 (single isomer, unassigned) [Compound 251b]	0.1 to 1 µM	+ (+ indicates a value of 10 to less than 50)	0.01 to 0.1 µM	0.01 to 0.1 µM	–	–	–	–
CNC(=O)c1ncc(N2CCC(N3CCC(c4cc5ccc(F)cc5c(=O)[nH]4)C3)CC2)c(C(F)(F)F)n1 (single isomer, unassigned) [Compound 266a]	0.1 to 1 µM	+++ (+++ indicate a value of at least 100)	< 0.01 µM	< 0.01 µM	–	–	–	–
CNC(=O)c1ccc(N2CCC(N3CCC(c4nc5cccc(F)c5c(=O)[nH]4)C3)CC2)cn1 (single isomer, unassigned) [Compound 101b]	–	+++ (+++ indicate a value of at least 100)	–	–	0.1 to 1 µM	< 0.01 µM	< 0.01 µM	–
CNC(=O)c1cnc(N2CCC(N3CCC(c4nc5ccccc5c(=O)[nH]4)C3)CC2)nc1 (racemic) [Compound 318rac]	0.1 to 1 µM	+ (+ indicates a value of 10 to less than 50)	0.01 to 0.1 µM	0.01 to 0.1 µM	–	–	–	–
CNC(=O)c1ccc(N2CCC(N3CCCC(c4ccc(CC(F)(F)F)c(=O)[nH]4)C3)CC2)cn1 (single isomer, unassigned) [Compound 169b]	–	+++ (+++ indicate a value of at least 100)	–	–	> 10 µM	0.01 to 0.1 µM	< 0.01 µM	–
CNC(=O)c1ccc(N2CCC(N3CCC(c4cc5cccc(F)c5c(=O)[nH]4)C3)CC2)c(C#N)c1 (single isomer, unassigned) [Compound 345a]	0.1 to 1 µM	+++ (+++ indicate a value of at least 100)	< 0.01 µM	< 0.01 µM	–	–	–	–
CNC(=O)c1ccc(N2CCC(N3CCC(c4nc5onc(C)c5c(=O)[nH]4)C3)CC2)cn1 (single isomer, unassigned) [Compound 149b]	–	− (− indicates a value of less than 10)	–	–	> 10 µM	1 to 10 µM	1 to 10 µM	–
